Results from ChEMBL document CHEMBL5512645, “A novel antimicrobial peptide with broad-spectrum and exceptional stability derived from the natural peptide Brevicidine” (Eur J Med Chem, 2024).
Activity calls are given as the source filed them. No cut-off for these calls is given here.

Legend:
[1] = test system: Staphylococcus aureus; assay: Antibacterial activity against Staphylococcus aureus ATCC 25923 at sub-MIC measured after 4 days; format: functional, organism-based; conditions: time 4.0 day
[2] = test system: Pseudomonas aeruginosa; assay: Antibacterial activity against Pseudomonas aeruginosa ATCC 27853 at sub-MIC measured after 2 days; format: functional, organism-based; conditions: time 2.0 day
[3] = test system: Erythrocyte; assay: Hemolytic activity in mouse red blood cell assessed as hemolysis incubated for 1 hr; format: toxicity, cell-based
[4] = test system: Bacillus subtilis; assay: Antibacterial activity against Bacillus subtilis ATCC 23857 incubated for 18 to 24 hrs by broth microdilution method; format: functional; conditions: time 18-24 hrs
[5] = test system: Enterococcus faecalis; assay: Antibacterial activity against Enterococcus faecalis ATCC 29212 incubated for 18 to 24 hrs by broth microdilution method; format: functional; conditions: time 18-24 hrs
[6] = test system: Pseudomonas aeruginosa; assay: Antibacterial activity against Pseudomonas aeruginosa ATCC 27853 incubated for 18 to 24 hrs by broth microdilution method; format: functional; conditions: time 18-24 hrs
[7] = test system: Acinetobacter baumannii; assay: Antibacterial activity against Acinetobacter baumannii ATCC 19606 incubated for 18 to 24 hrs by broth microdilution method; format: functional; conditions: time 18-24 hrs
[8] = test system: Staphylococcus aureus; assay: Antibacterial activity against Staphylococcus aureus ATCC 25923 incubated for 18 to 24 hrs by broth microdilution method; format: functional; conditions: time 18-24 hrs
[9] = test system: Escherichia coli; assay: Antibacterial activity against Escherichia coli ATCC 25922 incubated for 18 to 24 hrs by broth microdilution method; format: functional; conditions: time 18-24 hrs
[10] = test system: Staphylococcus epidermidis; assay: Antibacterial activity against Staphylococcus epidermidis ATCC 12228 incubated for 18 to 24 hrs by broth microdilution method; format: functional; conditions: time 18-24 hrs
[11] = test system: Klebsiella pneumoniae; assay: Antibacterial activity against Klebsiella pneumoniae ATCC 700603 incubated for 18 to 24 hrs by broth microdilution method; format: functional; conditions: time 18-24 hrs
[12] = test system: Pseudomonas aeruginosa; assay: Antibacterial activity against Pseudomonas aeruginosa ATCC 27853 at sub-MIC measured after 3 days; format: functional, organism-based; conditions: time 3.0 day
[13] = test system: Staphylococcus aureus; assay: Antibacterial activity against Staphylococcus aureus ATCC 25923 at sub-MIC measured after 5 days; format: functional, organism-based; conditions: time 5.0 day
[14] = Toxicity in male BALB/c mouse assessed as hemorrhage in liver at 19.45 mg/kg, ip administered as single dose by H and E staining based analysis; format: organism-based; conditions: in vivo
[15] = Toxicity in male BALB/c mouse assessed as hemorrhage in lung at 19.45 mg/kg, ip administered as single dose by H and E staining based analysis; format: organism-based; conditions: in vivo
[16] = Toxicity in male BALB/c mouse assessed as cellular infiltration in kidney at 19.45 mg/kg, ip administered as single dose by H and E staining based analysis; format: organism-based; conditions: in vivo
[17] = Toxicity in male BALB/c mouse assessed as survival rate at 15 mg/kg, ip measured after 7 days relative to control; format: organism-based; conditions: in vivo, 168 h, time 7 day
[18] = Toxicity in male BALB/c mouse assessed as lethal dose administered as ip measured after 7 days; format: organism-based; conditions: in vivo, ip, 168 h, time 7 day
[19] = Toxicity in male BALB/c mouse assessed as hemorrhage in kidney at 19.45 mg/kg, ip administered as single dose by H and E staining based analysis; format: organism-based; conditions: in vivo
[20] = Toxicity in male BALB/c mouse assessed as massive edema in kidney at 19.45 mg/kg, ip administered as single dose by H and E staining based analysis; format: organism-based; conditions: in vivo
[21] = Toxicity in male BALB/c mouse assessed as cellular infiltration in liver at 19.45 mg/kg, ip administered as single dose by H and E staining based analysis; format: organism-based; conditions: in vivo
[22] = Toxicity in male BALB/c mouse assessed as cell necrosis in liver at 19.45 mg/kg, ip administered as single dose by H and E staining based analysis; format: organism-based; conditions: in vivo
[23] = Toxicity in male BALB/c mouse assessed as alveolar shrinkage in lung at 19.45 mg/kg, ip administered as single dose by H and E staining based analysis; format: organism-based; conditions: in vivo
[24] = Toxicity in male BALB/c mouse assessed as cellular infiltration in lung at 19.45 mg/kg, ip administered as single dose by H and E staining based analysis; format: organism-based; conditions: in vivo
[25] = Toxicity in male BALB/c mouse assessed as survival rate at 23.8 to 30 mg/kg, ip measured within 30 mins relative to control; format: organism-based; conditions: in vivo, 0.5 h, dose 23.8-30 mg/kg
[26] = Toxicity in male BALB/c mouse assessed as cellular infiltration in spleen at 19.45 mg/kg, ip administered as single dose by H and E staining based analysis; format: organism-based; conditions: in vivo
[27] = Toxicity in male BALB/c mouse assessed as hemorrhage in spleen at 19.45 mg/kg, ip administered as single dose by H and E staining based analysis; format: organism-based; conditions: in vivo

CO[C@H]1/C=C/O[C@@]2(C)Oc3c(C)c(O)c4c(O)c(c(/C=N/N5CCN(C)CC5)c(O)c4c3C2=O)NC(=O)/C(C)=C\C=C\[C@H](C)[C@H](O)[C@@H](C)[C@@H](O)[C@@H](C)[C@H](OC(C)=O)[C@@H]1C
Activity [1]: inactive
Activity [2]: inactive

CCC(C)CCC(=O)N[C@H](CC(N)=O)C(=O)N[C@H](Cc1ccc(O)cc1)C(=O)N[C@H](Cc1c[nH]c2ccccc12)C(=O)N[C@H](CCCN)C(=O)N[C@@H](CCCN)C(=O)NCC(=O)N[C@H](C)C(=O)N[C@@H](Cc1c[nH]c2ccccc12)C(=O)N[C@@H]1C(=O)N[C@@H]([C@@H](C)CC)C(=O)NCC(=O)N[C@@H](CO)C(=O)O[C@@H]1C (mixture of isomers)
MHC [3]: 32 µM
MIC [4]: 16 µM
MIC [5]: 64 µM
MIC [6]: 16 µM
MIC [7]: 8 µM
MIC [8]: 32 µM
MIC [9]: 8 µM
MIC [10]: 32 µM
MIC [11]: 16 µM

CCC(C)CCC(=O)N[C@H](CC(N)=O)C(=O)N[C@H](Cc1ccc(O)cc1)C(=O)N[C@H](Cc1c[nH]c2ccccc12)C(=O)N[C@H](CN)C(=O)N[C@@H](CN)C(=O)NCC(=O)N[C@H](CN)C(=O)N[C@@H](Cc1c[nH]c2ccccc12)C(=O)N[C@@H]1C(=O)N[C@@H]([C@@H](C)CC)C(=O)NCC(=O)N[C@@H](CO)C(=O)O[C@@H]1C (mixture of isomers)
MHC [3]: 128 µM
MIC [4]: 32 µM
MIC [5]: > 128 µM
MIC [6]: 4 µM
MIC [7]: 32 µM
MIC [8]: 128 µM
MIC [9]: 32 µM
MIC [10]: 16 µM
MIC [11]: 16 µM

CCC(C)CCC(=O)N[C@H](CC(N)=O)C(=O)N[C@H](Cc1ccc(O)cc1)C(=O)N[C@H](Cc1c[nH]c2ccccc12)C(=O)N[C@H](CCCN)C(=O)N[C@@H](CCCN)C(=O)N[C@@H](CCCN)C(=O)N[C@H](CCCN)C(=O)N[C@@H](Cc1c[nH]c2ccccc12)C(=O)N[C@@H]1C(=O)N[C@@H]([C@@H](C)CC)C(=O)NCC(=O)N[C@@H](CO)C(=O)O[C@@H]1C (mixture of isomers)
MHC [3]: 128 µM
MIC [4]: 8 µM
MIC [5]: 128 µM
MIC [6]: 1 µM
MIC [7]: 8 µM
MIC [8]: 32 µM
MIC [9]: 2 µM
MIC [10]: 16 µM
MIC [11]: 2 µM

CCC(C)CCC(=O)N[C@H](CC(N)=O)C(=O)N[C@H](Cc1ccc(O)cc1)C(=O)N[C@H](Cc1c[nH]c2ccccc12)C(=O)N[C@H](CCCN)C(=O)N[C@@H](C)C(=O)NCC(=O)N[C@H](CCCN)C(=O)N[C@@H](Cc1c[nH]c2ccccc12)C(=O)N[C@@H]1C(=O)N[C@@H]([C@@H](C)CC)C(=O)NCC(=O)N[C@@H](CO)C(=O)O[C@@H]1C (mixture of isomers)
MHC [3]: 64 µM
MIC [4]: 16 µM
MIC [5]: 64 µM
MIC [6]: 4 µM
MIC [7]: 8 µM
MIC [8]: 32 µM
MIC [9]: 8 µM
MIC [10]: 32 µM
MIC [11]: 8 µM

CCC(C)CCC(=O)N[C@H](CC(N)=O)C(=O)N[C@H](Cc1ccc(C(C)(C)C)cc1)C(=O)N[C@H](Cc1c[nH]c2ccccc12)C(=O)N[C@H](CCCN)C(=O)N[C@@H](CCCN)C(=O)NCC(=O)N[C@H](CCCN)C(=O)N[C@@H](Cc1c[nH]c2ccccc12)C(=O)N[C@@H]1C(=O)N[C@@H]([C@@H](C)CC)C(=O)NCC(=O)N[C@@H](CO)C(=O)O[C@@H]1C (mixture of isomers)
MHC [3]: 16 µM
MIC [4]: 8 µM
MIC [5]: 32 µM
MIC [6]: 8 µM
MIC [7]: 8 µM
MIC [8]: 16 µM
MIC [9]: 16 µM
MIC [10]: 16 µM
MIC [11]: 16 µM

CCC(C)CCC(=O)N[C@H](CC(N)=O)C(=O)N[C@H](Cc1ccc(O)cc1)C(=O)N[C@H](Cc1c[nH]c2ccccc12)C(=O)N[C@H](CCCNC(=N)N)C(=O)N[C@@H](CCCNC(=N)N)C(=O)NCC(=O)N[C@H](CCCNC(=N)N)C(=O)N[C@@H](Cc1c[nH]c2ccccc12)C(=O)N[C@@H]1C(=O)N[C@@H]([C@@H](C)CC)C(=O)NCC(=O)N[C@@H](CO)C(=O)O[C@@H]1C (mixture of isomers)
MHC [3]: 128 µM
MIC [4]: 16 µM
MIC [5]: 64 µM
MIC [6]: 4 µM
MIC [7]: 8 µM
MIC [8]: 64 µM
MIC [9]: 4 µM
MIC [10]: 2 µM
MIC [11]: 4 µM

CCC(C)CCC(=O)N[C@H](CCCN)C(=O)N[C@H](Cc1ccc(O)cc1)C(=O)N[C@H](Cc1c[nH]c2ccccc12)C(=O)N[C@H](CCCN)C(=O)N[C@@H](CCCN)C(=O)NCC(=O)N[C@H](CCCN)C(=O)N[C@@H](Cc1c[nH]c2ccccc12)C(=O)N[C@@H]1C(=O)N[C@@H]([C@@H](C)CC)C(=O)NCC(=O)N[C@@H](CO)C(=O)O[C@@H]1C (mixture of isomers)
MHC [3]: 128 µM
MIC [4]: 4 µM
MIC [5]: 64 µM
MIC [6]: 1 µM
MIC [7]: 8 µM
MIC [8]: 32 µM
MIC [9]: 4 µM
MIC [10]: 16 µM
MIC [11]: 2 µM

CCC(C)CCC(=O)N[C@H](CC(N)=O)C(=O)N[C@H](Cc1ccc(O)cc1)C(=O)N[C@H](Cc1c[nH]c2ccccc12)C(=O)N[C@H](C)C(=O)N[C@@H](CCCN)C(=O)NCC(=O)N[C@H](CCCN)C(=O)N[C@@H](Cc1c[nH]c2ccccc12)C(=O)N[C@@H]1C(=O)N[C@@H]([C@@H](C)CC)C(=O)NCC(=O)N[C@@H](CO)C(=O)O[C@@H]1C (mixture of isomers)
MHC [3]: 64 µM
MIC [4]: 16 µM
MIC [5]: 32 µM
MIC [6]: 8 µM
MIC [7]: 8 µM
MIC [8]: 32 µM
MIC [9]: 8 µM
MIC [10]: 32 µM
MIC [11]: 8 µM

GENTAMICIN
Activity [12]: inactive
Activity [13]: inactive

POLYMYXIN B
Activity [14]: Toxic
MHC [3]: 128 µM
Activity [15]: Toxic
Activity [16]: Toxic
Survival [17]: 100%
LD50 [18]: 19.45 mg/kg
Activity [19]: Toxic
Activity [20]: Toxic
Activity [21]: Toxic
Activity [22]: Toxic
Activity [23]: Toxic
Activity [24]: Toxic
Survival [25]: 0%
Activity [26]: Toxic
Activity [27]: Toxic
